Experimental data as given in patent US8975265B2, “Substituted imidazo[1,2-a]pyrimidines and —pyridines” (Bayer Intellectual Property GmbH, priority 2010, dated 2015).
Where two headings read alike, the source gives them in different places.

What was measured:
[1] = tested on: p-AKT1/2/3-S473 in KPL4 breast tumour cell line; experiment: Cellular p-AKT1/2/3-S473 assay; format: cell-based; conditions: read-out: pAKT-S743 median IC50
Protocol: The molecular mechanism of action was investigated in a set of experiments to assess the inhibition of the PI3K-AKT-mTOR pathway in responsive cell lines such as KPL4 breast tumour cell line (PIK3CAH1047R, HER20/E and hormone independent). The phospho-substrates of PI3K-AKT-mTOR axis were used as the read-outs to reflect pathway inhibition. Cells were seeded at 60-80% confluency per well in 96-well cell culture plates. After overnight incubation at 37° C. 5% CO2, cells were treated with compounds and vehicle at 37° C. for 2 hours. […] All measurements where at least done in duplicates and confirmed by independent repetition.
Alternatively pAKT-S473 was measured using the “Akt Duplex” of the MULTI-SPOT® Assay System (Fa. Meso Scale Discovery, Cat# N41100B-1) following manufacturers instructions. Each assay used 20 μg of protein extract and measured total AKT and p-AKT content simultaneously in one well. All measurements where at least done in duplicates and confirmed by independent repetition. Values for P-AKT are expressed as percentage of P-AKT level compared to total-AKT content of the extracts.

[2] = tested on: KPL-4 breast cancer cell line; experiment: Tumor cell proliferation assay (CellTiter-Glo, 72 h), KPL-4; format: cell-based
Protocol: Biological Assay 4.0: Tumor Cell Proliferation Assays
(§1) Compounds were tested in a cell-based assay that measures the capacity of the compounds to inhibit tumour cell proliferation following a 72h drug exposure. Cell viability is determined using CellTiter-Glow® (CTG, Promega, cat# G7571/2/3). The CellTiter-Glo® Luminescent Cell Viability Assay is a homogeneous method to determine the number of viable cells in culture. Detection is based on using the luciferase reaction to measure the amount of ATP from viable cells. The amount of ATP in cells correlates with cell viability. Within minutes after a loss of membrane integrity, cells lose the ability to synthesize ATP, and endogenous ATPases destroy any remaining ATP; thus the levels of ATP fall precipitously.
(§2) For each cell line assayed, cells were plated onto a separate plate for determination of […] at t=0 hour and t=72 hour time points. Following overnight incubation at 37° C., chemiluminescence values for the t=0 samples were determined after adding 10 μl medium and 100 μl CTG solution according to manufacture protocol. Plates for the t=72 hour time points were treated with compounds diluted into growth medium at ten times final concentration added in 10 μL to the cell culture plate. Cells were then incubated for 72 hours at 37° C. Chemiluminescence values for the t=72 hour samples were determined. […] Experiments were controlled using a reference compound as standard.

MCF7 = experiment: Tumor cell proliferation assay (CellTiter-Glo, 72 h), MCF7; format: cell-based; conditions: Homo sapiens, 72h drug exposure
Protocol: as §1
as §2, with “Cells were plated at 3000-5000 cells/well (depending on the cell lines) in 90 μL growth medium on MTPs (Corning; #3603, black plate, clear flat bottom). For” for “For”

[3] = target: His-tagged human recombinant kinase full-length Akt1 (Homo sapiens (Human), UniProt P31749); experiment: Akt1 kinase assay (TR-FRET); format: biochemical; conditions: 10 μM ATP; read-out: Akt1, median IC50
His-tagged human recombinant kinase full-length Akt1, sequence (P31749 whole entry): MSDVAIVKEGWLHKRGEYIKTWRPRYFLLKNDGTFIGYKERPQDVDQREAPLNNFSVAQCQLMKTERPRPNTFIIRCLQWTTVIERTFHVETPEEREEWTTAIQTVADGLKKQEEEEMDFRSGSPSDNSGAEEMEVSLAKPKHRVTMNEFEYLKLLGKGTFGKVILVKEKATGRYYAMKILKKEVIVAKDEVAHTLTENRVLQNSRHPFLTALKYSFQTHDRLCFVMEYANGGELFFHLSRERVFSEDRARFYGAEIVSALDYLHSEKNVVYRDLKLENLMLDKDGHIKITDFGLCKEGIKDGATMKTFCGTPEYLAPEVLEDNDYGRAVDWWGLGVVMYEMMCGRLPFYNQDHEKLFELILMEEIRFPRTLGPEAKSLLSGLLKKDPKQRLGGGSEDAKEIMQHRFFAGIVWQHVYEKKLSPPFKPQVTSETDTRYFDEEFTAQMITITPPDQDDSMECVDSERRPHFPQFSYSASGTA
Protocol: Biological Assay 1.0: Akt1 Kinase Assay
Akt1 inhibitory activity of compounds of the present invention was quantified employing the Akt1 TR-FRET assay as described in the following paragraphs.
As substrate for the kinase reaction the biotinylated peptide biotin-Ahx-[…] (C-terminus in amide form) was used which can be purchased e.g. from the company Biosynthan GmbH (Berlin-Buch, Germany).
For the assay 50 nl of a 100 fold concentrated solution of the test compound in DMSO was pipetted into a black low volume 384 well microtiter plate (Greiner Bio-One, Frickenhausen, Germany), 2 μl of a solution of Akt1 in assay buffer [50 mM TRIS/HCl pH 7.5, 5 mM MgCl2, 1 mM dithiothreitol, 0.02% (v/v) Triton X-100 (Sigma)] were added and the mixture was incubated for 15 min at 22° C. to allow prebinding of the test compounds to the enzyme before the start of the kinase reaction. […] The concentration of Akt1 in the assay was adjusted depending of the activity of the enzyme lot and was chosen appropriate to have the assay in the linear range, typical enzyme concentrations were in the range of about 0.05 ng/μl (final conc. in the 5 μl assay volume).
The resulting mixture was incubated 1 h at 22° C. to allow the binding of the biotinylated phosphorylated peptide to the streptavidine-XL665 and the antibodies. Subsequently the amount of phosphorylated substrate was evaluated by measurement of the resonance energy transfer from the anti-mouse-IgG-Eu-Chelate to the streptavidine-XL665.

[4] = KPL4 breast tumour cell line, 2 hours treatment

SMILES	IC50 [1, 4]	IC50 ([2]; KPL4, 72h drug exposure)	IC50 (MCF7)	IC50 [3]	IC50 ([2]; 72h drug exposure)	IC50 ([1]; KPL4, 2 h)
COC(=O)c1cc(OC)c2nc(-c3ccc(C4(N)CCC4)cc3)c(-c3ccccc3)n2c1 [Example 1-12]	276 nM	8300 nM	800 nM	–	–	–
NC1(c2ccc(-c3nc4ccc(-n5cccn5)cn4c3-c3ccccc3)cc2)CCC1 [Example 1-16]	359 nM	2000 nM	1800 nM	–	–	–
NC1(c2ccc(-c3nc4c(-c5ccc(F)cc5)cccn4c3-c3ccccc3)cc2)CCC1 [Example 2-68, 1-{4-[8-(4-fluorophenyl)-3-phenyl-imidazo[1,2-a]pyridin-2-yl]-phenyl}-cyclobutylamine]	748 nM	3100 nM	1900 nM	308 nM	–	–
NC1(c2ccc(-c3nc4c(-c5cccc(F)c5)cccn4c3-c3ccccc3)cc2)CCC1 [Example 2-69]	796 nM	2900 nM	1800 nM	208 nM	–	–
COc1cncc(-c2cccn3c(-c4ccccc4)c(-c4ccc(C5(N)CCC5)cc4)nc23)c1 [Example 2-70]	298 nM	2000 nM	1600 nM	–	–	–
NC1(c2ccc(-c3nc4c(-c5ccn[nH]5)cccn4c3-c3ccccc3)cc2)CCC1 [Example 2-71]	153 nM	1900 nM	1600 nM	64 nM	–	–
NC1(c2ccc(-c3nc4c(-c5ccc6cn[nH]c6c5)cccn4c3-c3ccccc3)cc2)CCC1 [Example 2-72]	814 nM	2100 nM	1700 nM	390 nM	–	–
CC(=O)c1ccn2c(-c3ccccc3)c(-c3ccc(C4(N)CCC4)cc3)nc2c1 [Example 2-128]	471 nM	4400 nM	1700 nM	175 nM	–	–
NC1(c2ccc(-c3nc4ccc(-c5ncc[nH]5)cn4c3-c3ccccc3)cc2)CCC1 [Example 2-130]	731 nM	8400 nM	1800 nM	321 nM	–	–
NC1(c2ccc(-c3nc4ccc(-c5ccccn5)cn4c3-c3ccccc3)cc2)CCC1 [Example 2-138]	541 nM	2400 nM	–	530 nM	–	–
NC1(c2ccc(-c3nc4ccc(Br)cn4c3-c3ccccc3)cc2)CCC1 [Example 2-139]	–	2000 nM	–	44 nM	–	181 nM
COC(=O)/C=C/c1ccc2nc(-c3ccc(C4(N)CCC4)cc3)c(-c3ccccc3)n2c1 [Example 2-141]	361 nM	–	–	196 nM	5300 nM	–
NC(=O)/C=C/c1ccc2nc(-c3ccc(C4(N)CCC4)cc3)c(-c3ccccc3)n2c1 [Example 2-142]	114 nM	2600 nM	–	347 nM	–	–
Cn1cc(-c2ccn3c(-c4ccccc4)c(-c4ccc(C5(N)CCC5)cc4)nc3c2)cn1 [Example 2-150]	66 nM	1700 nM	–	558 nM	–	–
CC(=O)Nc1ccn2c(-c3ccccc3)c(-c3ccc(C4(N)CCC4)cc3)nc2c1 [Example 2-152]	185 nM	1800 nM	1700 nM	554 nM	–	–
NC(=O)Nc1ccn2c(-c3ccccc3)c(-c3ccc(C4(N)CCC4)cc3)nc2c1 [Example 2-153]	1640 nM	10000 nM	400 nM	457 nM	–	–
CON(C)C(=O)c1ccn2c(-c3ccccc3)c(-c3ccc(C4(N)CCC4)cc3)nc2c1 [Example 2-154]	720 nM	7500 nM	1700 nM	2150 nM	–	–
NC(=O)Nc1ccc2nc(-c3ccc(C4(N)CCC4)cc3)c(-c3ccccc3)n2c1 [Example 2-157]	965 nM	10000 nM	1100 nM	–	–	–
CNC(=O)Nc1ccc2nc(-c3ccc(C4(N)CCC4)cc3)c(-c3ccccc3)n2c1 [Example 2-158]	384 nM	4700 nM	1700 nM	327 nM	–	–
NCCOc1ccn2c(-c3ccccc3)c(-c3ccc(C4(N)CCC4)cc3)nc2n1 [Example 4-0, 1-{4-[7-(2-amino-ethoxy)-3-phenyl-imidazo[1,2-a]pyrimidin-2-yl]-phenyl}-cyclobutylamine]	1460 nM	4600 nM	–	548 nM	–	–

Further lines, with some results ahead:

IC50 [1, 4]	IC50 ([2]; KPL4, 72h drug exposure)	IC50 (MCF7)	IC50 [3]	IC50 ([2]; 72h drug exposure)	SMILES	IC50 ([1]; KPL4, 2 h)
103 nM	3200 nM	–	303 nM	–	NC1(c2ccc(-c3nc4ccc(O)cn4c3-c3ccccc3)cc2)CCC1 [Example 5-0, 2-[4-(1-amino-cyclobutyl)-phenyl]-3-phenyl-imidazo[1,2-a]pyridin-6-ol]	–
3480 nM	10000 nM	–	590 nM	–	NC1(c2ccc(-c3nc4c(O)cccn4c3-c3ccccc3)cc2)CCC1 [Example 5-1, 2-[4-(1-amino-cyclobutyl)-phenyl]-3-phenyl-imidazo[1,2-a]pyridin-8-ol]	–
1770 nM	2400 nM	–	1660 nM	–	C#Cc1ccn2c(-c3ccccc3)c(-c3ccc(C4(N)CCC4)cc3)nc2c1 [Example 7-0, 1-[4-(7-ethynyl-3-phenyl-imidazo[1,2-a]pyridin-2-yl)-phenyl]-cyclobutylamine]	–
1270 nM	10000 nM	–	12700 nM	–	NC(=O)CCc1ccn2c(-c3ccccc3)c(-c3ccc(C4(N)CCC4)cc3)nc2c1 [Example 8-0, 3-{2-[4-(1-amino-cyclobutyl)-phenyl]-3-phenyl-imidazo[1,2-a]pyridin-7-yl}-propionamide]	–
923 nM	2500 nM	–	158 nM	–	COC(=O)COc1ccn2c(-c3ccccc3)c(-c3ccc(C4(N)CCC4)cc3)nc2c1 [Example 9-0, {2-[4-(1-amino-cyclobutyl)-phenyl]-3-phenyl-imidazo[1,2-a]pyridin-7-yloxy}-acetic acid methyl ester]	–
90 nM	1700 nM	–	397 nM	–	NC(=O)COc1ccn2c(-c3ccccc3)c(-c3ccc(C4(N)CCC4)cc3)nc2c1 [Example 9-1]	–
25 nM	900 nM	–	258 nM	–	CN(C)C(=O)COc1ccn2c(-c3ccccc3)c(-c3ccc(C4(N)CCC4)cc3)nc2c1 [Example 9-2]	–
6470 nM	3100 nM	–	179 nM	–	COC(=O)COc1ccc2nc(-c3ccc(C4(N)CCC4)cc3)c(-c3ccccc3)n2c1 [Example 9-4]	–
51 nM	2200 nM	–	96 nM	–	N#CCOc1ccc2nc(-c3ccc(C4(N)CCC4)cc3)c(-c3ccccc3)n2c1 [Example 9-5]	–
308 nM	7900 nM	–	1270 nM	–	NC1(c2ccc(-c3nc4cc(O)ccn4c3-c3ccccc3)cc2)CCC1 [Example 10-0, 2-[4-(1-amino-cyclobutyl)-phenyl]-3-phenyl-imidazo[1,2-a]pyridin-7-ol]	–
